# Measurements published in patent US12240857B2 (priority 2017, dated 2025).
# Read-outs that look alike come from different tables or passages of the source.
# Tests used:
# [1] = system: EBOV mucin-domain-deleted glycoprotein pseudotyped VSV; experiment: microbe, parasite or virus in culture; type: cell-based, Zaire ebolavirus; conditions: Zaire ebolavirus, Vero
# in vitro [2] = conditions: African green monkey
# [3] = system: full-length Marburgvirus (MARV) GP pseudotyped VSV; experiment: microbe, parasite or virus in culture; type: cell-based, Marburg marburgvirus; conditions: for EC50: Orthomarburgvirus, read-out: EC50 Pseudotype Assays MARV
# [4] = system: parent VSV virus expressing the native VSV glycoprotein; experiment: microbe, parasite or virus in culture; type: cell-based; conditions: Vesicular stomatitis virus, Vero, read-out: EC50 Pseudotype Assays VSV
# [5] = system: full-length Ebola Zaire GP pseudotyped VSV (EBOV_FL); experiment: microbe, parasite or virus in culture; type: cell-based; conditions: Zaire ebolavirus, read-out: EC50 Pseudotype Assays EBOV_FL
# [6] = system: BDBV mucin-domain-deleted glycoprotein pseudotyped VSV; experiment: microbe, parasite or virus in culture; type: cell-based, Bundibugyo ebolavirus; conditions: Vesicular stomatitis virus, Vero
# [7] = system: full-length LASV glycoprotein pseudotyped VSV; experiment: microbe, parasite or virus in culture; type: cell-based, Lassa virus; conditions: Vesicular stomatitis virus, read-out: EC50 Pseudotype Assays LASV
# wild-type Ebola Zaire [8] = experiment: microbe, parasite or virus in culture; conditions: Zaire ebolavirus, HeLa, read-out: Ebola Zaire EC50
# wild-type Sudan Gulu [9] = system: wild-type Sudan Gulu
# wild-type Sudan Gulu [10] = experiment: microbe, parasite or virus in culture; conditions: Sudan ebolavirus, HeLa, read-out: Sudan Gulu EC50
# wild-type Ebola Zaire [11] = system: wild-type Ebola Zaire
# in vitro [12] = conditions: mouse, microsomes
# in vitro [13] = conditions: human, microsomes
# in vitro [14] = conditions: monkey, microsomes
# [15] = system: full-length SUDV GP pseudotyped VSV; experiment: microbe, parasite or virus in culture; type: cell-based, Sudan ebolavirus; conditions: Vesicular stomatitis virus, read-out: EC50 Pseudotype Assays SUDV
# [16] = read-out: EC50 Pseudotype Assays EBOV
# [17] = read-out: EC50 Pseudotype Assays BDBV
SMILES,EC50 ([1]; read-out: EC50 EBOV) [nM],"EC50 [1, 16] [nM]",CC50 (in vitro [2]; CC50) [µM],CC50 (in vitro [2]; Cytotox CC50) [µM],EC50 [3] [nM],EC50 [4] [µM],EC50 [5] [nM],EC50 ([6]; read-out: EC50 BDBV) [nM],"EC50 [6, 17] [nM]",EC50 [7] [µM],EC50 (wild-type Ebola Zaire [8]) [nM],Sudan Gulu SI (CC50/EC50) (wild-type Sudan Gulu [9]),EC50 (wild-type Sudan Gulu [10]) [nM],Ebola Zaire SI (CC50/EC50) (wild-type Ebola Zaire [11]),MARV pseudotyped virus EC50 concentration (in words) [3],"EC50 ([1]; 24 h, read-out: EC50 EBOV) [nM]","EC50 ([6]; 24 h, read-out: EC50 BDBV) [nM]",also measured
CN1CCC(NC(=O)C23CC4CC(C2)CC(c2ccccc2)(C4)C3)CC1 [Example A26],120,120,34,> 10,2700,> 10,160,90,90,> 10,,,,,,,,
CC12CC3CC(C(=O)N4CCCN(CCCN5CCCC5)CC4)(C1)CC(c1ccccc1)(C3)C2 (stereo not drawn) [Example A43],140,,1.2,,,,,80,,,180,104,60,36.3,,,,
CC12CC3CC(C(=O)N[C@H]4CN5CCC4CC5)(C1)CC(c1ccccc1)(C3)C2 (stereo partly drawn) [Example A45],60,61,7.2,> 10,290,> 10,120,140,160,> 10,380,,,>28,sub-micromolar,,,
O=C(N1CCNCC1)C12CC3CC(C1)CC(c1ccccc1)(C3)C2 [Example A60],210,260,,> 10,7900,> 10,280,170,210,> 10,,,,,,,,
O=C(NC1CCNCC1)C12CC3CC(C1)CC(c1ccccc1)(C3)C2 [Example A63],80,80,> 10,> 10,2800,> 10,40,80,80,> 10,390,,,>16,,,,half-life (in vitro [12]): > 210 min; half-life (in vitro [13]): 258 min; half-life (in vitro [14]): 237 min
CC12CC3CC(C(=O)NC4CCNCC4)(C1)CC(c1ccccc1)(C3)C2 (stereo not drawn) [Example A68],35,40,> 10,> 10,2800,> 10,40,160,170,> 10,180,181,130,134,,,,EC50 [15]: 410 nM; half-life (in vitro [12]): > 240 min; half-life (in vitro [13]): 187 min; half-life (in vitro [14]): 142 min
O=C(NC1CCNCC1)C1C2CC3CC1CC(c1ccccc1)(C3)C2 (stereo not drawn) [Example A81],180,,13.9,,,,,110,,,1110,266,210,48.9,,,,
CCC12CC3CC(C(=O)N[C@H]4CC[C@H](N)CC4)(C1)CC(c1ccccc1)(C3)C2 (stereo partly drawn) [Example A85],13,,12.1,,,,,96,,,100,64,180,112,,,,half-life (in vitro [12]): > 120 min; half-life (in vitro [13]): > 120 min; half-life (in vitro [14]): 84 min
"c1ccc(C23CC4CC(CC(CNC5CCNCC5)(C4)C2)C3)cc1 [Example C2, N-((3-phenyladamantan-1-yl)methyl)piperidin-4-amine]",250,,3.6,,,,,200,,,250,109,60,25.3,,,,
"CC1CCCC(C)N1CC(O)COCCC12CC3CC(CC(C3)C1)C2 (stereo not drawn) [Example D8, 1-[2-(adamantan-1-yl)ethoxy]-3-(2,6-dimethylpiperidin-1-yl) propan-2-ol]",,210,3.8,4,590,3.8,300,,80,4.9,,,,,sub-micromolar,210,80,
"CC1CCN(CC(O)COc2ccc(C34CC5CC(CC(C5)C3)C4)cc2)CC1 (stereo not drawn) [Example D21, 1-[4-(adamantan-1-yl)phenoxy]-3-(4-methylpiperidin-1-yl)propan-2-ol]",,50,1.1,3.7,360,3.7,110,,110,3,150,38.2,190,48.1,sub-micromolar,50,110,EC50 [15]: 410 nM
"OCCN1CCN(CC(O)COc2ccc(C34CC5CC(CC(C5)C3)C4)cc2)CC1 (stereo not drawn) [Example D24, 1[4-(adamantan-1-yl)phenoxy]-3[4-(2-hydroxyethyl)piperazin-1-yl]propan-2-ol]",,90,4.3,> 10,> 10000,> 10,80,,270,> 10,440,78.7,260,45.6,,80,270,EC50 [15]: 2430 nM
"CN(C)CCCNc1nc(C23CC4CC(CC(C4)C2)C3)cs1 [Example D29, (3-{[4-(adamantan-1-yl)-1,3-thiazol-2-yl]amino}propyl) dimethylamine]",,170,9.4,> 10,660,> 10,180,,160,> 10,920,203,300,66.1,sub-micromolar,170,160,EC50 [15]: 1440 nM
"CCN(CC)CCNc1nc(C23CC4CC(CC(C4)C2)C3)cs1 [Example D32, (2-{[4-(adamantan-1-yl)-1,3-thiazol-2-yl]amino}ethyl) diethylamine]",,230,9,> 10,610,> 10,200,,170,> 10,,,,,sub-micromolar,230,170,
